From patent US4044134A, “Fused pyrimidin-4(3H)-ones as antiallergy agents” (Pfizer Inc., priority 1976, dated 1977) come the findings set out here.

Structures can show the parent of a compound that is named as a salt. Where two headings read alike, the source gives them in different places.

This experiment deals with passive cutaneous anaphylaxis (PCA) reaction. As to the kind of experiment: passive cutaneous anaphylaxis (PCA) test, i.v. or oral administration. Type of experiment: in vivo, male Charles River Wistar rats. The conditions noted are these: for inhibition in vivo at 3 mg/kg / inhibition in vivo at 60 mg/kg / inhibition in vivo at 0.03 mg/kg / inhibition in vivo at 0.3 mg/kg / inhibition in vivo at 1 mg/kg / inhibition in vivo at 0.1 mg/kg / inhibition in vivo at 10 mg/kg / inhibition in vivo at 30 mg/kg / inhibition in vivo at 0.003 mg/kg / inhibition in vivo at 100 mg/kg: Rattus norvegicus, read-out: degree (%) of protection, PCA test. How it is done:
In the PCA test, normal animals are injected intradermally (i.d.) with antibodies contained in serum obtained from actively sensitized animals. The animals are then challenged intravenously with antigen mixed with a dye such as Evans' Blue. The increased capillary-permeability caused by the antigen-antibody reaction causes the dye to leak from the site of the antibody injection. The test animals are then asphyxiated and the intensity of the reaction determined by measuring the diameter and intensity of the blue coloration on the inner surface of the animals skin. […] The ability of agents to interfere with PCA reactions is measured in male Charles River Wistar rats, 170-210 g. […] Hyperimmune antisera to hen egg albumin is prepared according to Orange, et al., J. Exptl. […] Forty-eight hours prior to antigen challenge the reaginic antisera is injected intradermally (i.d.) into the shaved skin of a normal rat's back; 5 hours before challenge the hyperimmune antisera is similarly injected; 5 hours later, at a third site, 60 mcg. histamine dihydrochloride is injected i.d. as a check for antihistaminic and unspecific types of blockage; the compounds of the instant invention or saline are then administered i.v. and immediately followed by 2.5 mg. Evan's blue dye and 5 mg. egg albumin in saline. In the case of oral administration Evan's blue dye and egg albumen are given five minutes after administration of the drug. Thirty minutes later the animals are asphyxiated using chloroform and the skin of the back removed and reversed for observation. A score is assigned each injection site equal to the product of the diameter of the site in mm. and a grade of 0.1, 0.5, 1, 2, 3 or 4 proportional to intensity of dye coloration. The scores for a given injection site are summed for each group of 8 animals and compared to the saline treated controls. The difference is expressed as percent blockade due to the compound employed. […] Disodium cromoglycate, a commerial antiallergy agent, is included for comparison. [drawing 3]

On to `CCOC(=O)Cc1nc2cc3ccccc3cc2c(=O)[nH]1` [2-carbethoxymethylbenzo[g]quinazolin-4(3H)-one, reference compound], for which the inhibition in vivo at 3 mg/kg (iv, I.V., 3 mg/kg) was found to be 49%.
Take `Cc1nc2cc3ccccc3cc2c(=O)[nH]1` [2-methylbenzo[g]quinazolin-4(3H)-one, reference compound]: the “activity in the PCA test” value (rat, in vivo) was “little or no activity”.
Turning to `CCc1nc2nc3cc(OC)c(OC)cc3cc2c(=O)[nH]1` [C2 H5/H/H/OCH3/OCH3/H, 2-Ethyl-7,8-Dimethoxypyrimidin[4,5-b]quinolin-4(SH)-One], the inhibition in vivo at 3 mg/kg (iv, I.V., 3 mg/kg) was 56%. Further, the inhibition in vivo at 60 mg/kg (Oral) came to 0%.
Consider `COc1cc2cc3c(=O)[nH]c(C)nc3nc2cc1OC` [CH3/H/H/OCH3/OCH3/H, 2-Methyl-7,8-Dimethoxypyrimido[4,5-b]Quinolin-4(3H)-One], for which, under “iv, I.V.”, the inhibition in vivo at 0.03 mg/kg was 11% and the inhibition in vivo at 0.3 mg/kg was 45%. For the same compound, the inhibition in vivo at 3 mg/kg (iv, I.V., 3 mg/kg) amounted to 77%. Further, the inhibition in vivo at 1 mg/kg (Oral) was 43%. Further, the inhibition in vivo at 3 mg/kg (Oral, 3 mg/kg) was found to be 67%.
`COc1cc2cc3c(=O)[nH]c(C(C)=O)nc3nc2cc1OC` [COCH3/H/H/OCH3/OCH3/H, 2-Acetyl-7,8-Dimethoxypyrimido[4,5-b]quinoline-4(3H)-One]: under “iv, I.V.”, the inhibition in vivo at 0.1 mg/kg amounted to 19% and the inhibition in vivo at 1 mg/kg came to 21%. Further, for the setting “iv, I.V., 3 mg/kg”, the inhibition in vivo at 3 mg/kg was determined as 100%. The inhibition in vivo at 10 mg/kg (Oral, 10 mg/kg) is 15%.
On to `NC(=O)c1nc2nc3ccccc3cc2c(=O)[nH]1` [CONH2/H/H/H/H/H, Pyrimido[4,5-b]Quinolin-4(3H)-One-2-Carboxamide], for which the inhibition in vivo at 3 mg/kg (iv, I.V., 3 mg/kg) came out at 98%. Besides, the inhibition in vivo at 60 mg/kg (Oral) came to 23%.
In the case of `COc1cc2cc3c(=O)[nH]c(C(N)=O)nc3nc2cc1OC` [CONH2/H/H/OCH3/OCH3/H, 7,8-Dimethoxypyrimido[4,5-b]Quinolin-4(3H)-One-2-Carboxamide], the inhibition in vivo at 3 mg/kg (iv, I.V., 3 mg/kg) is 87%. Moreover, the inhibition in vivo at 30 mg/kg (Oral) amounted to 4%.
As to `COc1cc2cc3c(=O)[nH]c(C(=O)NO)nc3nc2cc1OC` [CONHOH/H/H/OCH3/OCH3/H, 7,8-Dimethoxypyrimido-[4,5-b]-Quinolin-4(3H)-One-2-Hydroxamic Acid], the inhibition in vivo at 3 mg/kg (iv, I.V., 3 mg/kg) stood at 92%. For the same compound, the inhibition in vivo at 60 mg/kg (Oral) is 3%.
Take `CCCCOC(=O)c1nc2nc3ccccc3cc2c(=O)[nH]1` [COO(n-C4 H9)/H/H/H/H/H, n-Butylpyrimido[4,5-b]Quinolin-4(3H)-One-2-carboxylate]: under “iv, I.V.”, the inhibition in vivo at 0.03 mg/kg came out at 6% and the inhibition in vivo at 1 mg/kg stood at 90%. Further, the inhibition in vivo at 30 mg/kg (Oral) was 50%.
Consider `CCCCOC(=O)c1nc2nc3cc(OC)c(OC)cc3cc2c(=O)[nH]1` [COO(n-C4 H9)/H/H/OCH3/OCH3/H], for which the inhibition in vivo at 0.003 mg/kg (iv, I.V., 0.003 mg/kg) was 64%. In addition, under “iv, I.V.”, the inhibition in vivo at 0.03 mg/kg worked out at 100% and the inhibition in vivo at 0.3 mg/kg came to 94%. Moreover, the inhibition in vivo at 3 mg/kg (iv, I.V., 3 mg/kg) was 90%. Further, the inhibition in vivo at 30 mg/kg (Oral) was 81%.
Take `CCCCOC(=O)c1nc2nc3cc(OC)c(OC(C)=O)cc3cc2c(=O)[nH]1` [COO-(n-C4 H9)/H/H/CH3 COO/OCH3/H]: the inhibition in vivo at 3 mg/kg (iv, I.V., 3 mg/kg) came to 100%. For the same compound, the inhibition in vivo at 10 mg/kg (Oral, 10 mg/kg) stood at 36%.
`CCCCOC(=O)c1nc2nc3cc(OC)c(OCc4ccccc4)cc3cc2c(=O)[nH]1` [COO-(n-C4 H9)/H/H/OC7 H7/OCH3/H]: the inhibition in vivo at 0.03 mg/kg (iv, I.V.) came to 57%. For the setting “iv, I.V., 3 mg/kg”, the inhibition in vivo at 3 mg/kg turned out to be 100%. In addition, for the setting “Oral, 10 mg/kg”, the inhibition in vivo at 10 mg/kg was 12%.
For the compound `CCCCOC(=O)c1nc2nc3cc(OC)c(O)cc3cc2c(=O)[nH]1` [COO-(n-C4 H9)/H/H/OH/OCH3/H, n-butyl 7-hydroxy-8-methoxypyrimido[4,5-b]quinolin-4(3H)one-2-carboxylate trifluoroacetate], the inhibition in vivo at 0.003 mg/kg (iv, I.V., 0.003 mg/kg) stood at 52%. Moreover, under “iv, I.V., 3 mg/kg”, the inhibition in vivo at 3 mg/kg was 100%. Moreover, the inhibition in vivo at 10 mg/kg (Oral, 10 mg/kg) is 67%.
As for `CCOC(=O)c1nc2nc3ccccc3c(-c3ccccc3)c2c(=O)[nH]1` [COOC2 H5/C6 H5/H/H/H/H, Ethyl 5-Phenylpyrimido[4,5-b]Quinolin-4(3H)-One-2-Carboxylate], for the setting “iv, I.V.”, the inhibition in vivo at 0.1 mg/kg worked out at 9%, the inhibition in vivo at 0.3 mg/kg came out at 51% and the inhibition in vivo at 1 mg/kg was found to be 95%. Also, the inhibition in vivo at 3 mg/kg (iv, I.V., 3 mg/kg) was found to be 100%. Besides, where the note is “Oral”, the inhibition in vivo at 1 mg/kg was 0%. Also, the inhibition in vivo at 10 mg/kg (Oral, 10 mg/kg) was 0%.
With `CCOC(=O)c1nc2nc3cccc(Cl)c3cc2c(=O)[nH]1` [COOC2 H5/H/Cl/H/H/H, Ethyl 6-Chloropyrimido[4,5-b]Quinolin-4(3H)-One-2-Carboxylate], for the setting “iv, I.V.”, the inhibition in vivo at 0.03 mg/kg amounted to 11% and the inhibition in vivo at 1 mg/kg is 96%. Moreover, the inhibition in vivo at 30 mg/kg (Oral) was 57%.
As for `CCOC(=O)c1nc2nc3cc4c(cc3cc2c(=O)[nH]1)OCO4` [COOC2 H5/H/H/--O--CH2 --O--, Ethyl 7,8-Methylenedioxypyrimido[4,5-b]Quinolin-4(3H)-One-2-Carboxylate], for the setting “iv, I.V.”, the inhibition in vivo at 0.1 mg/kg was 0% and the inhibition in vivo at 1 mg/kg is 70%. The inhibition in vivo at 30 mg/kg (Oral) was 0%.
For `CCOC(=O)c1nc2nc3cc4c(cc3cc2c(=O)[nH]1)OCCO4` [COOC2 H5/H/H/--O--CH2 CH2 --O--/H], where the note is “iv, I.V.”, the inhibition in vivo at 1 mg/kg stood at 64%. Moreover, the inhibition in vivo at 3 mg/kg (iv, I.V., 3 mg/kg) stood at 72%.
As for `CCOC(=O)c1nc2nc3cc(OC)c(OC(C)=O)cc3cc2c(=O)[nH]1` [COOC2 H5/H/H/CH3 COO/OCH3/H, Ethyl 7-Acetoxy-8-Methoxypyrimido[4,5-b]Quinolin-4(3H)One-2-Carboxylate p-Toluenesulfonate], for the setting “iv”, the inhibition in vivo at 0.003 mg/kg was 53% and the inhibition in vivo at 3 mg/kg was determined as 100%. In addition, the inhibition in vivo at 10 mg/kg (po) worked out at 40%.
In the case of `CCOC(=O)c1nc2nc3ccc(Cl)cc3cc2c(=O)[nH]1` [COOC2 H5/H/H/Cl/H/H, Ethyl 7-Chloropyrimido[4,5-b]quinolin-4(3H)-one-2-carboxylate], under “iv, I.V.”, the inhibition in vivo at 0.03 mg/kg was 0% and the inhibition in vivo at 1 mg/kg was determined as 70%.
For the compound `CCOC(=O)c1nc2nc3ccc(F)cc3cc2c(=O)[nH]1` [COOC2 H5/H/H/F/H/H, Ethyl 7-fluoropyrimido[4,5-b]quinolin-4(3H)-one-2-carboxylate], where the note is “iv, I.V.”, the inhibition in vivo at 0.03 mg/kg was 0% and the inhibition in vivo at 1 mg/kg is 90%. In addition, under “iv, I.V., 3 mg/kg”, the inhibition in vivo at 3 mg/kg is 82%. The inhibition in vivo at 30 mg/kg (Oral) worked out at 17%.
Regarding `CCOC(=O)c1nc2nc3cc(F)ccc3cc2c(=O)[nH]1` [COOC2 H5/H/H/H/F/H, Ethyl 8-fluoropyrimido[4,5-b]quinolin-4(3H)-one-2-carboxylate], the inhibition in vivo at 0.1 mg/kg (iv, I.V.) came to 2%.
As to `CCOC(=O)c1nc2cc3ccccc3cc2c(=O)[nH]1` [COOC2 H5/H/H/H/H (Formula II), ethyl Benzo[g]Quinazolin-4(3H)-One-2-Carboxylate], the inhibition in vivo at 10 mg/kg (iv, I.V., 10 mg/kg) is 27%. For the same compound, for the setting “Oral”, the inhibition in vivo at 100 mg/kg turned out to be 38%.
For `CCOC(=O)c1nc2nc3ccccc3cc2c(=O)[nH]1` [COOC2 H5/H/H/H/H/H, Ethyl Pyrimido[4,5-b]Quinolin-4-(3H)-One-2-Carboxylate], under “iv, I.V.”, the inhibition in vivo at 0.03 mg/kg was 30%, the inhibition in vivo at 0.1 mg/kg came to 45%, the inhibition in vivo at 0.3 mg/kg is 82% and the inhibition in vivo at 1 mg/kg was determined as 100%. Also, the inhibition in vivo at 3 mg/kg (iv, I.V., 3 mg/kg) was determined as 99%. Moreover, for the setting “iv, I.V., 10 mg/kg”, the inhibition in vivo at 10 mg/kg was 100%. Where the note is “Oral”, the inhibition in vivo at 1 mg/kg is 12%, the inhibition in vivo at 30 mg/kg was determined as 72%, the inhibition in vivo at 60 mg/kg was determined as 100% and the inhibition in vivo at 100 mg/kg was found to be 80%. The inhibition in vivo at 3 mg/kg (Oral, 3 mg/kg) is 69%.
For `CCOC(=O)c1nc2nc3cc(OC)ccc3cc2c(=O)[nH]1` [COOC2 H5/H/H/H/OCH3/H], for the setting “iv, I.V.”, the inhibition in vivo at 0.03 mg/kg was 0% and the inhibition in vivo at 0.3 mg/kg worked out at 20%. In addition, the inhibition in vivo at 3 mg/kg (iv, I.V., 3 mg/kg) was determined as 90%. The inhibition in vivo at 10 mg/kg (Oral, 10 mg/kg) came out at 43%.
